Measurements: ChEMBL document CHEMBL1155354, “Carbonic anhydrase inhibitors. Inhibition of the Rv1284 and Rv3273 beta-carbonic anhydrases from Mycobacterium tuberculosis with diazenylbenzenesulfonamides” (Bioorg Med Chem Lett, 2009)

Experiments:
[1] = molecular target: T1, Beta-carbonic anhydrase 1 (Mycobacterium tuberculosis, UniProt P9WPJ7)
T1 sequence (P9WPJ7 whole entry): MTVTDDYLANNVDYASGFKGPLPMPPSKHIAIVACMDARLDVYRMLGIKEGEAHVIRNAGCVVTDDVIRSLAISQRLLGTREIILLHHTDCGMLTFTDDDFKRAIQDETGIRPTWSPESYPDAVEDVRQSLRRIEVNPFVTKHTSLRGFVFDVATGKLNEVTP

[2] = molecular target: T2, PROBABLE TRANSMEMBRANE CARBONIC ANHYDRASE (CARBONATE DEHYDRATASE) (CARBONIC DEHYDRATASE) (Mycobacterium tuberculosis, UniProt P96878)
T2 sequence (P96878 whole entry): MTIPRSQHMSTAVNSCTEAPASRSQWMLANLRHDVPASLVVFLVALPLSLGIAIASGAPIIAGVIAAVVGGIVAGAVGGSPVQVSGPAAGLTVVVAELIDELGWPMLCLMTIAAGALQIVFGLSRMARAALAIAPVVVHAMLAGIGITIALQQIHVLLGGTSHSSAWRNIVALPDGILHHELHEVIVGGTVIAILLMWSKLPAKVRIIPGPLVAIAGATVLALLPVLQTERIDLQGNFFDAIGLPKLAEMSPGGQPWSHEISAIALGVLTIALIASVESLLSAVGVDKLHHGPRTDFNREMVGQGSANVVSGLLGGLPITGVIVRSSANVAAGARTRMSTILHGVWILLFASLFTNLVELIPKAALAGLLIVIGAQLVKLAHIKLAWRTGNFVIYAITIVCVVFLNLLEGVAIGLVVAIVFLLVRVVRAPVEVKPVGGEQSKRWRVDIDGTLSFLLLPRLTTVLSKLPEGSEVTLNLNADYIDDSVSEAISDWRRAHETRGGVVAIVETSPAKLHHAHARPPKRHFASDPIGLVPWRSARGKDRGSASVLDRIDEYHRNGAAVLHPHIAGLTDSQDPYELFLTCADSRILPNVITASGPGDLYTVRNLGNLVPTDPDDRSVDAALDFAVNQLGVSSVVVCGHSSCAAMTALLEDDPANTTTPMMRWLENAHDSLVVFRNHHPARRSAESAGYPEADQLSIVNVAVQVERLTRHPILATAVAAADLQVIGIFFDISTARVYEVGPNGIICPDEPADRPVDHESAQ
Description: Inhibition of Mycobacterium tuberculosis recombinant carbonic anhydrase Rv3273 by stopped flow CO2 hydration assay

[3] = molecular target: Carbonic anhydrase 2 (Homo sapiens, UniProt P00918)
Description: Inhibition of human cloned full length carbonic anhydrase 2 by stopped flow CO2 hydration assay

Structure (SMILES) | Ki [1] [µM] | Ki [2] [µM] | Ki [3] [µM]
Nc1ccc(/N=N/c2ccc(S(N)(=O)=O)cc2)cc1 | 7.2 | 8.78 | –
Nc1ccc(S(=O)(=O)NCc2ccc(S(N)(=O)=O)cc2)cc1 | – | 2.21 | –
NS(=O)(=O)c1ccc(/N=N/c2ccc(NCS(=O)(=O)O)cc2)cc1 | 6.78 | 8.9 | –
CN(C)c1ccc(/N=N/c2ccc(S(N)(=O)=O)cc2)cc1 | 6.86 | 30.7 | 0.638
NS(=O)(=O)c1ccc(/N=N/c2ccc(O)cc2)cc1 | 9.27 | 12.4 | –
CN(CS(=O)(=O)O)c1ccc(/N=N/c2cccc(S(N)(=O)=O)c2)cc1 | 63 | 7.4 | –
CN(CS(=O)(=O)O)c1ccc(/N=N/c2ccc(S(N)(=O)=O)cc2)cc1 | 8.71 | 9.03 | –
NS(=O)(=O)c1cccc(/N=N/c2ccc(NCS(=O)(=O)O)cc2)c1 | 7.51 | 9.45 | –
Nc1ccc(/N=N/c2cccc(S(N)(=O)=O)c2)cc1 | 7 | 8.68 | –
CNc1ccc(/N=N/c2ccc(S(N)(=O)=O)cc2)cc1 | 7.69 | 9.18 | 0.093
NS(=O)(=O)c1cccc(/N=N/c2ccc(O)cc2)c1 | 8.97 | 9.23 | 0.106
CN(C)c1ccc(/N=N/c2cccc(S(N)(=O)=O)c2)cc1 | 7.54 | 9.36 | –
Nc1ccc(S(=O)(=O)NCCc2ccc(S(N)(=O)=O)cc2)cc1 | – | 0.17 | –
CCN[C@H]1CN(CCCOC)S(=O)(=O)c2sc(S(N)(=O)=O)cc21 [BRINZOLAMIDE] | – | 0.201 | –
NCc1ccc(S(N)(=O)=O)cc1 [MAFENIDE] | – | 7.33 | –
CC(=O)Nc1cc2c(O)c(/N=N/c3ccc(S(N)(=O)=O)cc3)c(S(=O)(=O)O)cc2cc1S(=O)(=O)O [PRONTOCIL] | 0.126 | 0.148 | –
O=S(=O)(O)CNc1ccccc1 [SODIUM PHENYLAMINOMETHANESULFONATE] | 8.67 | 8.9 | –
CN(CS(=O)(=O)O)c1ccccc1 [SODIUM(METHYL(PHENYL)AMINO)METHANESULFONATE] | 7.86 | 9.11 | –
